The record followed here is the supplement of paper PMC4314810.

± gives the standard deviation of the averaged measurements.

The test system of the series is MCF7. Description: HRG-induced Akt activation (dPAkt = log2 pAkt/Akt HRG-stimulated minus log2 pAkt/Akt basal) (log2 ratio difference); higher = stronger HRG-induced Akt(T308) phosphorylation. As to conditions: miRNA mimic concentration 10 nM; time after transfection 72 h; heregulin 10 ng/ml; stimulation time 1 h. An outline of the steps:
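MCF7 cells ([…], 96-well plates) carrying one of 879 miRNA mimics, transfected at 10 nM final with Lipofectamine RNAiMax in two biological replicates, were stimulated after 72 h with 10 ng/ml heregulin-beta1 for 1 h or left unstimulated. Phospho-Akt(T308) and total Akt in cells fixed with 4% PFA were read by In-Cell Western on an Odyssey and corrected for column-wise fixation decay to give log2(pAkt/Akt). Heregulin-induced Akt activation is the replicate mean of stimulated minus unstimulated ratios.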
For UUAUAAAGCAAUGAGACUGAUU, the “HRG-induced Akt activation (log2)” value is 1.5 ± 0.79.

For UUAUAAUACAACCUGAUAAGUG, the “HRG-induced Akt activation (log2)” value worked out at 1.04 ± 0.33.

Turning to UUAUCAGAAUCUCCAGGGGUAC, the “HRG-induced Akt activation (log2)” value is 2.16 ± 0.2.

As to UUAUGGUUUGCCUGGGACUGAG, the “HRG-induced Akt activation (log2)” value came to 1.74 ± 0.28.

For UUAUUGCUUAAGAAUACGCGUAG, the “HRG-induced Akt activation (log2)” value was found to be 1.64 ± 0.095.

Consider UUCAACGGGUAUUUAUUGAGCA, for which the “HRG-induced Akt activation (log2)” value was found to be 1.34 ± 0.24.

As for UUCAAGUAAUCCAGGAUAGGCU, the “HRG-induced Akt activation (log2)” value was 1.19 ± 0.24.

With UUCAAGUAAUUCAGGAUAGGU, the “HRG-induced Akt activation (log2)” value was determined as 1.06 ± 0.39.

As to UUCAAGUAAUUCAGGUG, the “HRG-induced Akt activation (log2)” value turned out to be 1.22 ± 0.15.

As for UUCACAAGGAGGUGUCAUUUAU, the “HRG-induced Akt activation (log2)” value is 1.442 ± 0.013.

As for UUCACAGGGAGGUGUCAU, the “HRG-induced Akt activation (log2)” value was 1.82 ± 0.08.

In the case of UUCACAGUGGCUAAGUUCCGC, the “HRG-induced Akt activation (log2)” value stood at 1.73 ± 0.22.

In the case of UUCACAGUGGCUAAGUUCUGC, the “HRG-induced Akt activation (log2)” value is 1.73 ± 0.061.

For UUCACAUUGUGCUACUGUCUGC, the “HRG-induced Akt activation (log2)” value is 1.59 ± 0.03.

As for UUCACCACCUUCUCCACCCAGC, the “HRG-induced Akt activation (log2)” value was determined as 1.57 ± 0.62.

In the case of UUCAUUCGGCUGUCCAGAUGUA, the “HRG-induced Akt activation (log2)” value stood at 1.48 ± 0.1.

On to UUCAUUUGGUAUAAACCGCGAUU, for which the “HRG-induced Akt activation (log2)” value stood at 2.42 ± 0.062.

Take UUCCCUUUGUCAUCCUAUGCCU: the “HRG-induced Akt activation (log2)” value was found to be 0.793 ± 0.043.

Take UUCCCUUUGUCAUCCUUCGCCU: the “HRG-induced Akt activation (log2)” value is 1 ± 0.3.

With UUCCUAUGCAUAUACUUCUUUG, the “HRG-induced Akt activation (log2)” value turned out to be 1.11 ± 0.32.

UUCUCAAGGAGGUGUCGUUUAU: the “HRG-induced Akt activation (log2)” value was 0.993 ± 0.67.

Turning to UUCUCCAAAAGAAAGCACUUUCUG, the “HRG-induced Akt activation (log2)” value stood at 2.57 ± 0.12.

Consider UUCUCCAAAAGGGAGCACUUUC, for which the “HRG-induced Akt activation (log2)” value came to 2.3 ± 0.097.

For UUCUCGAGGAAAGAAGCACUUUC, the “HRG-induced Akt activation (log2)” value came to 1.61 ± 0.16.

With UUCUGGAAUUCUGUGUGAGGGA, the “HRG-induced Akt activation (log2)” value was determined as 1.78 ± 0.2.

Consider UUGAAAGGCUAUUUCUUGGUC, for which the “HRG-induced Akt activation (log2)” value was 2.39 ± 0.036.

For UUGAGAAGGAGGCUGCUG, the “HRG-induced Akt activation (log2)” value was 1.18 ± 0.17.

As for UUGAGAAUGAUGAAUCAUUAGG, the “HRG-induced Akt activation (log2)” value worked out at 1.82 ± 0.5.

UUGCAGCUGCCUGGGAGUGACUUC: the “HRG-induced Akt activation (log2)” value came out at 0.96 ± 0.045.

In the case of UUGCAUAGUCACAAAAGUGAUC, the “HRG-induced Akt activation (log2)” value stood at 1.36 ± 0.096.

As for UUGCAUAUGUAGGAUGUCCCAU, the “HRG-induced Akt activation (log2)” value was found to be 1.32 ± 0.079.

For UUGCUCACUGUUCUUCCCUAG, the “HRG-induced Akt activation (log2)” value was found to be 0.86933 ± 0.00015.

As to UUGGCCACAAUGGGUUAGAAC, the “HRG-induced Akt activation (log2)” value was determined as 1.02 ± 0.1.

Regarding UUGGGACAUACUUAUGCUAAA, the “HRG-induced Akt activation (log2)” value is 1.28 ± 0.2.

For UUGGGAUCAUUUUGCAUCCAUA, the “HRG-induced Akt activation (log2)” value is 1.13 ± 0.3.

Regarding UUGGGGAAACGGCCGCUGAGUG, the “HRG-induced Akt activation (log2)” value stood at 2.08 ± 0.097.

Take UUGUACAUGGUAGGCUUUCAUU: the “HRG-induced Akt activation (log2)” value came out at 1.7 ± 0.31.

Take UUGUGCUUGAUCUAACCAUGU: the “HRG-induced Akt activation (log2)” value is 1.1 ± 0.016.

As to UUGUGUCAAUAUGCGAUGAUGU, the “HRG-induced Akt activation (log2)” value stood at 1.768 ± 0.00038.

Regarding UUUAACAUGGGGGUACCUGCUG, the “HRG-induced Akt activation (log2)” value stood at 1.59 ± 0.42.

Turning to UUUAGAGACGGGGUCUUGCUCU, the “HRG-induced Akt activation (log2)” value stood at 1.54 ± 0.51.

Consider UUUAGGAUAAGCUUGACUUUUG, for which the “HRG-induced Akt activation (log2)” value was 1.37 ± 0.39.

For UUUCAAGCCAGGGGGCGUUUUUC, the “HRG-induced Akt activation (log2)” value came out at 0.989 ± 0.21.

Take UUUCCAUAGGUGAUGAGUCAC: the “HRG-induced Akt activation (log2)” value turned out to be 1.09 ± 0.68.

With UUUCCGGCUCGCGUGGGUGUGU, the “HRG-induced Akt activation (log2)” value is 1.627 ± 0.015.

For the sequence UUUGAGGCUACAGUGAGAUGUG, the “HRG-induced Akt activation (log2)” value was 2.06 ± 0.034.

On to UUUGGCAAUGGUAGAACUCACACU, for which the “HRG-induced Akt activation (log2)” value was 1.75 ± 0.06.

As to UUUGGCACUAGCACAUUUUUGCU, the “HRG-induced Akt activation (log2)” value is 1.535 ± 0.007.

With UUUGGUCCCCUUCAACCAGCUA, the “HRG-induced Akt activation (log2)” value was 1.61 ± 0.066.

Turning to UUUGGUCCCCUUCAACCAGCUG, the “HRG-induced Akt activation (log2)” value came out at 1.54 ± 0.13.

Consider UUUGUGACCUGGUCCACUAACC, for which the “HRG-induced Akt activation (log2)” value was 1.16 ± 0.88.

As for UUUGUUCGUUCGGCUCGCGUGA, the “HRG-induced Akt activation (log2)” value amounted to 1.23 ± 0.27.

Take UUUUCAACUCUAAUGGGAGAGA: the “HRG-induced Akt activation (log2)” value worked out at 1.48 ± 0.1.

Turning to UUUUGCAAUAUGUUCCUGAAUA, the “HRG-induced Akt activation (log2)” value is 1.01 ± 0.24.

Take UUUUGCACCUUUUGGAGUGAA: the “HRG-induced Akt activation (log2)” value came to 1.55 ± 0.13.

Take UUUUGCGAUGUGUUCCUAAUAU: the “HRG-induced Akt activation (log2)” value was 1.67 ± 0.12.

Take UUUUUCAUUAUUGCUCCUGACC: the “HRG-induced Akt activation (log2)” value stood at 1.62 ± 0.14.
